Laboratory results reported in ChEMBL document CHEMBL1145029, “Design, synthesis, and evaluation of benzothiadiazepine hydroxamates as selective tumor necrosis factor-alpha converting enzyme inhibitors” (J Med Chem, 2003).

Columns and labels:
[1] = target: T1, Disintegrin and metalloproteinase domain-containing protein 17 (Homo sapiens, UniProt P78536); assay: Ability to suppress the formation of TNF-aplha in human peripheral blood mononuclear cell assay(PBMC); assay type: functional
[2] = target: T2, Interstitial collagenase (Homo sapiens, UniProt P03956); assay: In vitro inhibitory activity against broad spectrum matrix metalloprotease-1 (MMP-1)
T2 sequence (P03956 whole entry): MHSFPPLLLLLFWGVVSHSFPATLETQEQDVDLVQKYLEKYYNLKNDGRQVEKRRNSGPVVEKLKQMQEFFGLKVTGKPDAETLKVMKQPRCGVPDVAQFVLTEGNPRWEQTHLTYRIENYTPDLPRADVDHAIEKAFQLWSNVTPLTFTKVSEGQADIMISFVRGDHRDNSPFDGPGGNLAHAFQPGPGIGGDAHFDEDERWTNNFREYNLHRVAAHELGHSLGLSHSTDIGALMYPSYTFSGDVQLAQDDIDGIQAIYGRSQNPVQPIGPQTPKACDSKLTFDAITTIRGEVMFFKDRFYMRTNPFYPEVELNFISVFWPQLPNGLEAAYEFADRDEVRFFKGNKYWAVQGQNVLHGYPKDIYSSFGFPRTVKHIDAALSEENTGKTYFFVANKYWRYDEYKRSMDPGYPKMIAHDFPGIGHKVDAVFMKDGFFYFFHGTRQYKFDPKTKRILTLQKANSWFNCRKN

[3] = target: 72 kDa type IV collagenase (Homo sapiens, UniProt P08253)
Sequence of 72 kDa type IV collagenase (P08253 whole entry): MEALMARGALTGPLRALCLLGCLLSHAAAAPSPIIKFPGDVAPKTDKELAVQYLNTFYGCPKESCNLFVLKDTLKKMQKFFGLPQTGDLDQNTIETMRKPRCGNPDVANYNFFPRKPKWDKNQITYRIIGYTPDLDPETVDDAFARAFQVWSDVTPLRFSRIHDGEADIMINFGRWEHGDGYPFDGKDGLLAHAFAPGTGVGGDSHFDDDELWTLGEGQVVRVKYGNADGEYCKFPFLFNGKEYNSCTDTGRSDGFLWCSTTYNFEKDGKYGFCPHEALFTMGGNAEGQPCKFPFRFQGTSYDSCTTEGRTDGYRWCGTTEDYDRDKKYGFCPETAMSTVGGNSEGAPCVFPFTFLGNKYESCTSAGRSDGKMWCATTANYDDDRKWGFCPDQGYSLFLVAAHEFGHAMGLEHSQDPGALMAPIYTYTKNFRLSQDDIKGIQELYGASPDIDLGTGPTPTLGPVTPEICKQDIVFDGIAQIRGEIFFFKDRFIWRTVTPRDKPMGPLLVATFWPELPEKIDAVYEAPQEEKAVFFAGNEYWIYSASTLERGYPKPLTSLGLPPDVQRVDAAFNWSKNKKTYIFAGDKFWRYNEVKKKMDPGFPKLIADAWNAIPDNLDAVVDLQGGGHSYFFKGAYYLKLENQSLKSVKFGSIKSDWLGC
Description: In vitro inhibitory activity against broad spectrum matrix metalloprotease-2 (MMP-2)

[4] = target: Matrix metalloproteinase-9 (Homo sapiens, UniProt P14780); assay: In vitro inhibitory activity against broad spectrum matrix metalloprotease-9 (MMP-9)
Sequence of Matrix metalloproteinase-9 (P14780 whole entry, the tested form may be a part): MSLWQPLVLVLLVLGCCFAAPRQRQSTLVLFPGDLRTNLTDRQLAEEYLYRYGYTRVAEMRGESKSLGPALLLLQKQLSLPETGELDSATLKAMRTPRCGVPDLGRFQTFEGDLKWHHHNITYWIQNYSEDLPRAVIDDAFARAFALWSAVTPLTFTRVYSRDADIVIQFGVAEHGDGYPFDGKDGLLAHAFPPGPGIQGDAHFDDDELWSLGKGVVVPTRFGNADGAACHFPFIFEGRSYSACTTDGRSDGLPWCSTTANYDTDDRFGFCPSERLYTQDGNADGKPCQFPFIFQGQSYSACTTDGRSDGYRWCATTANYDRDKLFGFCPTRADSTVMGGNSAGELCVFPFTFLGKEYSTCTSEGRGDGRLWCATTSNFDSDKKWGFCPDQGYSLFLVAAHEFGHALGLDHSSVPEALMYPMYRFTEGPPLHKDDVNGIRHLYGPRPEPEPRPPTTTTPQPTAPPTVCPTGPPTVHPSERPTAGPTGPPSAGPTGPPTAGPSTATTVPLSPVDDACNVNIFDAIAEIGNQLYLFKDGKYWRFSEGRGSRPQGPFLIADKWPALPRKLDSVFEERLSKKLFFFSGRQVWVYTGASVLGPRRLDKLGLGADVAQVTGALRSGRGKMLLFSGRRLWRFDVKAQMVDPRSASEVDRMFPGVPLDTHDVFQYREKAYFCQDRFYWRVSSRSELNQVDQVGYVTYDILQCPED

[5] = target: T1, Disintegrin and metalloproteinase domain-containing protein 17; assay: Ability to suppress the formation of TNF-aplha in human whole blood assay (WBA); assay type: functional, tissue-based

T1 sequence (P78536 whole entry, the tested form may be a part): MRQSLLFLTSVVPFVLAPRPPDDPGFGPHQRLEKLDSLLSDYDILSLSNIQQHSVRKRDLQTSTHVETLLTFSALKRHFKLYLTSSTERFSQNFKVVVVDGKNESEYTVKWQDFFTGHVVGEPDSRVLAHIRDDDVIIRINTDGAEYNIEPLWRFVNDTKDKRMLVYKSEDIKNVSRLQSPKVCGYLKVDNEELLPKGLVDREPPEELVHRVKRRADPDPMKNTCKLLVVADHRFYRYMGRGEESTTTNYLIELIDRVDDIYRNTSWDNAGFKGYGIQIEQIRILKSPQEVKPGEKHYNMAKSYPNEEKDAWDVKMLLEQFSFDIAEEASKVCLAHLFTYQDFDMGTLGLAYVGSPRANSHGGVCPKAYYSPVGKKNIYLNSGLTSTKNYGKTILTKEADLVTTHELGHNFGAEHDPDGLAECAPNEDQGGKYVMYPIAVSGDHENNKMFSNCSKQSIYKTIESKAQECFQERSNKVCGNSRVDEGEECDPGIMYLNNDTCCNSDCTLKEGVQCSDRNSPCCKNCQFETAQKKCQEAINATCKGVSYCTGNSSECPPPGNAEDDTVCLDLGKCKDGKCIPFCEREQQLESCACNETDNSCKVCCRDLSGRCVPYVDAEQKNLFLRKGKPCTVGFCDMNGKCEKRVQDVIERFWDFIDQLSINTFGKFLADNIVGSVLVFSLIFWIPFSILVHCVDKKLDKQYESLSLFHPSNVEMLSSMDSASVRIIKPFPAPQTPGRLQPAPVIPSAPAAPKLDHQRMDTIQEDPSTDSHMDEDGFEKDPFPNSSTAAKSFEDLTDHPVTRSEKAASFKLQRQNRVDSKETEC

Structure (SMILES)	IC50 [1]	Ki [2]	Ki [3]	Ki [4]	IC50 [5]
CC(C)C[C@H](C(=O)NO)N1CCNc2cc(O)ccc2S1(=O)=O	9500 nM	0.479 µM	11 nM	80 nM	–
COc1cc(COc2ccc3c(c2)NCCN([C@H](C)C(=O)NO)S3(=O)=O)cc(OC)c1	770 nM	> 4.95 µM	491 nM	> 2130 nM	28 µM
C[C@H](C(=O)NO)N1CCNc2cc(Oc3ccc(C(F)(F)F)cc3)ccc2S1(=O)=O	840 nM	> 4.95 µM	< 2.8 nM	7 nM	–
CCOc1cc(COc2ccc3c(c2)NCCN([C@H](CCCC(=O)OC)C(=O)NO)S3(=O)=O)cc(OCC)c1	1100 nM	> 4.95 µM	1380 nM	> 2130 nM	24 µM
CC(C)C[C@H](C(=O)NO)N1CCNc2cc(OCc3ccccc3)ccc2S1(=O)=O	350 nM	0.548 µM	< 2.8 nM	< 2.1 nM	–
C[C@H](C(=O)NO)N1CCNc2cc(Oc3ccccc3)ccc2S1(=O)=O	–	> 4.95 µM	23 nM	3 nM	–
C[C@H](C(=O)NO)N1CCNc2cc(Oc3ccc([N+](=O)[O-])cc3)ccc2S1(=O)=O	1200 nM	> 4.95 µM	8 nM	19 nM	15 µM
C[C@H](C(=O)NO)N1CCNc2cc(O)ccc2S1(=O)=O	–	0.98 µM	< 2.8 nM	100 nM	–
COc1ccc2c(c1)NCCN([C@@H](C(=O)NO)C(C)C)S2(=O)=O	–	0.732 µM	52 nM	751 nM	–
Cc1nc(COc2ccc3c(c2)NCCN([C@@H](C(=O)NO)C(C)C)S3(=O)=O)sc1C	24500 nM	> 4.95 µM	361 nM	> 2130 nM	–
COc1ccc2c(c1)NCCN(CC(=O)NO)S2(=O)=O	–	> 4.95 µM	1500 nM	> 2130 nM	–
C[C@H](C(=O)NO)N1CCNc2cc(Oc3cccc([N+](=O)[O-])c3)ccc2S1(=O)=O	470 nM	> 4.95 µM	85 nM	96 nM	1.4 µM
COc1ccc2c(c1)NCCN([C@H](C)C(=O)NO)S2(=O)=O	–	1.06 µM	–	104 nM	–
COc1cc(COc2ccc3c(c2)NCCN([C@@H](C(=O)NO)C(C)C)S3(=O)=O)cc(OC)c1	4000 nM	> 4.95 µM	647 nM	981 nM	–
CCOc1cc(COc2ccc3c(c2)NCCN([C@H](C)C(=O)NO)S3(=O)=O)cc(OCC)c1	4500 nM	> 4.95 µM	690 nM	> 2130 nM	–
COc1cc(COc2ccc3c(c2)NCCN([C@H](CCCCN)C(=O)NO)S3(=O)=O)cc(OC)c1	–	> 4.95 µM	231 nM	> 2130 nM	–
C[C@H](C(=O)NO)N1CCNc2cc(OCc3cc(Cl)cc(Cl)c3)ccc2S1(=O)=O	940 nM	> 4.95 µM	49 nM	1210 nM	–
Cc1cc(C)cc(COc2ccc3c(c2)NCCN([C@H](C)C(=O)NO)S3(=O)=O)c1	–	> 4.95 µM	136 nM	> 2130 nM	–

Structure (SMILES)	IC50 [1]	Ki [2]	Ki [3]	Ki [4]	IC50 [5]
COc1cc(COc2ccc3c(c2)NCCN([C@H](CCCCNS(C)(=O)=O)C(=O)NO)S3(=O)=O)cc(OC)c1	1900 nM	> 4.95 µM	391 nM	> 2130 nM	38 µM
C[C@H](C(=O)NO)N1CCNc2ccccc2S1(=O)=O	–	> 4.95 µM	75 nM	567 nM	–
COC(=O)CCC[C@H](C(=O)NO)N1CCNc2cc(OCc3cc(OC)cc(OC)c3)ccc2S1(=O)=O	900 nM	> 4.95 µM	332 nM	> 2130 nM	–
C[C@H](C(=O)NO)N1CCNc2cc(-c3ccccc3)ccc2S1(=O)=O	–	0.272 µM	< 2.8 nM	8 nM	–
C[C@H](C(=O)NO)N1CCNc2cc(-c3ccccc3C(F)(F)F)ccc2S1(=O)=O	–	> 4.95 µM	2520 nM	> 2130 nM	–
COC(=O)CC[C@H](C(=O)NO)N1CCNc2cc(OCc3cc(OC)cc(OC)c3)ccc2S1(=O)=O	7200 nM	> 4.95 µM	1590 nM	> 2130 nM	–
CCOc1cc(COc2ccc3c(c2)NCCN([C@H](CCC(=O)OC)C(=O)NO)S3(=O)=O)cc(OCC)c1	6200 nM	> 4.95 µM	960 nM	> 2130 nM	–
COc1cc(COc2ccc3c(c2)NCCN([C@H](CCCCNC(=O)OC(C)(C)C)C(=O)NO)S3(=O)=O)cc(OC)c1	–	> 4.95 µM	32 nM	118 nM	–
COc1ccc(Oc2ccc3c(c2)NCCN([C@H](C)C(=O)NO)S3(=O)=O)cc1	–	> 4.95 µM	< 2.8 nM	< 2.1 nM	–
CCOc1cc(COc2ccc3c(c2)NCCN([C@@H](C(=O)NO)C(C)C)S3(=O)=O)cc(OCC)c1	8200 nM	> 4.95 µM	3000 nM	> 2130 nM	–
COc1cc(CNc2ccc3c(c2)NCCN([C@H](CC(C)C)C(=O)NO)S3(=O)=O)cc(OC)c1	–	> 4.95 µM	75 nM	347 nM	–
COc1ccc2c(c1)NCN([C@H](C)C(=O)NO)S2(=O)=O	–	> 4.95 µM	312 nM	1050 nM	–
C[C@H](C(=O)NO)N1CCNc2cc(Oc3ccc(-c4ccccc4)cc3)ccc2S1(=O)=O	–	2.02 µM	< 2.8 nM	< 2.1 nM	–
Cc1cc(COc2ccc3c(c2)NCCN([C@H](C)C(=O)NO)S3(=O)=O)cc(C)n1	2900 nM	> 4.95 µM	75 nM	1840 nM	–
Cc1cc(C)cc(C(=O)Nc2ccc3c(c2)NCCN([C@H](C)C(=O)NO)S3(=O)=O)c1	–	> 4.95 µM	94 nM	993 nM	–
COc1cc(COc2ccc3c(c2)NCCN([C@H](CC(C)C)C(=O)NO)S3(=O)=O)cc(OC)c1	5400 nM	> 4.95 µM	154 nM	> 2130 nM	–
C[C@H](C(=O)NO)N1CCNc2cc(OCc3ccccc3)ccc2S1(=O)=O	–	> 4.95 µM	< 2.8 nM	3.6 nM	–
O=C(CN1CCNc2ccccc2S1(=O)=O)NO	–	> 4.95 µM	1920 nM	> 2130 nM	–
